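Each compound was tested at five concentrations against cells in 96-well plates for 48 hours. GI50 = concentration required for 50% inhibition of growth.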 Activity calls are given as the source filed them. Cut-off read from the data, not from the text of the source: active = GI50 up to about 1.1 µM and inactive = higher.

Some test systems named below: 786-0; COLO 205; HCT-15; HL-60; Hs-578T; K562; MCF7; NCI-H460; NCI/ADR-RES; OVCAR-4; PC-3; SF-295; SF-539; SK-MEL-2; TK-10; UO-31; BT-549.
Common to all, as to assay: growth of human tumour cells (NCI), 48 h

`Cc1ccc([N+](=O)[O-])cc1NC1=NCCO1`: the GI50 was > 100 µM (inactive) in the test on 786-0; > 100 µM (inactive) in the test with COLO 205; over 100 µM in the test with HCT-15; > 100 µM (inactive) in the test with HL-60; > 100 µM (inactive) in the test on Hs-578T; > 100 µM (inactive) in the test with K562. Moreover, the GI50 in the test on MCF7, in the test with NCI-H460, in the test with NCI/ADR-RES, in the test on OVCAR-4, in the test with PC-3 and in the test on SF-295 was > 100 µM (inactive) each time. For the same molecule, the GI50 in the test on SF-539, in the test on SK-MEL-2, in the test on TK-10 and with UO-31 was > 100 µM (inactive) throughout.

As for `CC(=O)O[C@@H]1[C@H](OC2CCCCC2(c2ccccc2)c2ccccc2)O[N+]([O-])=CC12CCCCC2` (stereo partly drawn), the GI50 is 13.4 µM (inactive) in the test on 786-0; 16.4 µM (inactive) in the test on COLO 205; 16 µM in the test with HCT-15; < 0.01 µM (active) in the test on HL-60; 19.2 µM (inactive) with Hs-578T; 54.2 µM (inactive) in the test with K562. Further, the GI50 is 18.2 µM (inactive) with MCF7; 18.2 µM (inactive) in the test with NCI-H460; 15.9 µM (inactive) in the test with NCI/ADR-RES; 10.8 µM (inactive) in the test on PC-3; 15.7 µM (inactive) in the test on SF-295; 20 µM (inactive) in the test with SF-539. Moreover, the GI50 was 16.7 µM (inactive) with TK-10 and 17.5 µM (inactive) in the test on UO-31.

As to `O=NC1C(Cl)C2CC1C1C(Br)C(Br)CC21` (stereo not drawn), the GI50 with 786-0 is > 100 µM (inactive); in the test on COLO 205, > 100 µM (inactive); with HCT-15, over 100 µM; with HL-60 it was > 100 µM (inactive); in the test with Hs-578T it was > 100 µM (inactive); with K562, > 100 µM (inactive). For the same molecule, the GI50 with MCF7, with NCI-H460, in the test with NCI/ADR-RES, with OVCAR-4, with PC-3 and in the test on SF-295 was > 100 µM (inactive) each time. The GI50 in the test with SF-539, in the test with SK-MEL-2, with TK-10 and with UO-31 was > 100 µM (inactive) each time.

For `CO/N=C(/C)c1cccc(Nc2nc3ccccc3c3[nH]c4ccccc4c23)c1`, the GI50 in the test with 786-0 is 8.55 µM (inactive); in the test on COLO 205, 7.33 µM (inactive); with HCT-15, 5.92 µM; in the test with HL-60, 12.7 µM (inactive); with Hs-578T it was 13.8 µM (inactive); in the test with K562, 5.97 µM (inactive). Also, the GI50 with MCF7 is 5.16 µM (inactive); in the test with NCI-H460 it was 2.52 µM (inactive); in the test on NCI/ADR-RES it was 8.97 µM (inactive); in the test with PC-3 it was 10.4 µM (inactive); with SF-295 it was 3.5 µM (inactive); in the test with SF-539 it was 14.4 µM (inactive). For the same molecule, the GI50 was 10.7 µM (inactive) in the test with SK-MEL-2 and 10.1 µM (inactive) in the test on UO-31.

In the case of `C[n+]1cc2cc(O)c(O)cc2c2ccc3cc(O)c(O)cc3c21.c1ccncc1`, the GI50 in the test on 786-0 is 2.03 µM (inactive); with BT-549, 2.26 µM (inactive); in the test with COLO 205, 10.3 µM (inactive); in the test with HCT-15, 2.47 µM; in the test with K562, 1.71 µM (inactive); in the test with MCF7 it was 2.09 µM (inactive). In addition, the GI50 in the test on NCI-H460 was 2.86 µM (inactive); in the test on NCI/ADR-RES, 2.3 µM (inactive); in the test with OVCAR-4 it was 2.88 µM (inactive); in the test with PC-3 it was 3.37 µM (inactive); with SF-295 it was 3.39 µM (inactive); with SF-539, 2.62 µM (inactive). Further, the GI50 in the test with SK-MEL-2 was 3.05 µM (inactive); with TK-10 it was 4.01 µM (inactive); with UO-31 it was 0.982 µM (active).

As to `CC(=O)NNC(=S)N/C=C1/C(=O)C=C(C)OC1=O`, the GI50 in the test with 786-0 was > 100 µM (inactive); in the test with BT-549, > 100 µM (inactive); in the test on COLO 205 it was > 100 µM (inactive); in the test with HCT-15 it was over 100 µM; in the test on HL-60, > 100 µM (inactive); in the test on MCF7, > 100 µM (inactive). Moreover, the GI50 in the test on NCI-H460, in the test on NCI/ADR-RES, in the test on OVCAR-4, in the test with PC-3, in the test on SF-295 and in the test on SF-539 was > 100 µM (inactive) throughout. Besides, the GI50 with SK-MEL-2, in the test with TK-10 and in the test on UO-31 was > 100 µM (inactive) throughout.

For `Clc1c(Cl)c(Cl)c2c(nnn2C2CCCO2)c1Cl` (stereo not drawn), the GI50 in the test with 786-0 was 45.8 µM (inactive); in the test on COLO 205, 24.2 µM (inactive); in the test with HCT-15, 28.4 µM; in the test with HL-60, 5.79 µM (inactive); in the test on Hs-578T, 25.8 µM (inactive); in the test on K562 it was 24.3 µM (inactive). Besides, the GI50 with MCF7 was 33.9 µM (inactive); in the test with NCI-H460, 13.9 µM (inactive); in the test with NCI/ADR-RES it was 31.7 µM (inactive); in the test with OVCAR-4, 18.9 µM (inactive); in the test on PC-3 it was 39.2 µM (inactive); with SF-295, 36.9 µM (inactive). Further, the GI50 is 30.7 µM (inactive) in the test on SF-539, 26.5 µM (inactive) with SK-MEL-2 and 65.3 µM (inactive) in the test with TK-10.

For the molecule `C=CCOC(=O)Cn1cnc2c(N)ncnc21`, the GI50 in the test on 786-0 was > 100 µM (inactive); in the test on COLO 205 it was > 100 µM (inactive); in the test with HCT-15, over 100 µM; in the test with HL-60, > 100 µM (inactive); in the test with Hs-578T, > 100 µM (inactive); in the test with K562, > 100 µM (inactive). For the same molecule, the GI50 in the test with MCF7, with NCI-H460, with NCI/ADR-RES, in the test with OVCAR-4, in the test on PC-3 and in the test with SF-295 was > 100 µM (inactive) in each case. For the same molecule, the GI50 in the test on SF-539, with SK-MEL-2, with TK-10 and in the test on UO-31 was > 100 µM (inactive) each time.

`COC12c3ccccc3-c3ccccc3C1[C@H]1C(=O)OC(=O)[C@H]12` (stereo partly drawn): the GI50 in the test on 786-0 is > 10 µM (inactive); in the test on COLO 205, > 10 µM (inactive); with HCT-15, over 10 µM; in the test with HL-60, > 10 µM (inactive); in the test on Hs-578T, > 10 µM (inactive); in the test on K562, > 10 µM (inactive). The GI50 in the test with MCF7, in the test on NCI-H460, in the test with NCI/ADR-RES, in the test with OVCAR-4, in the test on PC-3 and with SF-295 was > 10 µM (inactive) throughout. Also, the GI50 with SF-539, in the test with SK-MEL-2, in the test on TK-10 and with UO-31 was > 10 µM (inactive) throughout.

`CCOc1ccc(Nc2nc3c(s2)C(=O)c2ccccc2C3=O)cc1`: the GI50 in the test on 786-0 is 14.2 µM (inactive); with COLO 205 it was 19.8 µM (inactive); in the test with HCT-15, 2.55 µM; in the test with HL-60 it was 3.19 µM (inactive); with Hs-578T, 12.1 µM (inactive); in the test on K562, 3.36 µM (inactive). Further, the GI50 was 4.81 µM (inactive) in the test on MCF7; 15 µM (inactive) in the test on NCI-H460; 0.787 µM (active) with OVCAR-4; 5.56 µM (inactive) in the test with PC-3; 10.7 µM (inactive) in the test on SF-295; 10.4 µM (inactive) in the test with SF-539. The GI50 with SK-MEL-2 was 15.1 µM (inactive); in the test on TK-10 it was 20.8 µM (inactive); in the test on UO-31, 14.4 µM (inactive).

As to `CC(=O)OC1CC2CC(=O)CC1N2C` (stereo not drawn), the GI50 in the test with 786-0 was > 100 µM (inactive); in the test on COLO 205, > 100 µM (inactive); with HCT-15 it was over 100 µM; in the test on HL-60, > 100 µM (inactive); in the test with Hs-578T, > 100 µM (inactive); with K562, > 100 µM (inactive). Also, the GI50 in the test with MCF7, in the test with NCI-H460, with NCI/ADR-RES, in the test on OVCAR-4, with PC-3 and in the test with SF-295 was > 100 µM (inactive) each time. The GI50 in the test with SF-539, with SK-MEL-2, in the test with TK-10 and in the test with UO-31 was > 100 µM (inactive) throughout.

With `CC1CCC2CC1NC(=O)CCOCCC(=O)NC2(C)C` (stereo not drawn), the GI50 in the test on 786-0 was > 100 µM (inactive); with BT-549 it was > 100 µM (inactive); in the test with COLO 205 it was > 100 µM (inactive); in the test with HCT-15, over 100 µM; in the test on HL-60, > 100 µM (inactive); with K562, > 100 µM (inactive). For the same molecule, the GI50 with MCF7, in the test with NCI-H460, with OVCAR-4, in the test with PC-3, in the test with SF-295 and in the test with SF-539 was > 100 µM (inactive) each time. Also, the GI50 in the test with TK-10 and with UO-31 was > 100 µM (inactive) each time.

In the case of `CN(C)c1ccc(/C=C2\C[C@H]3[C@@H]4CC=C5C[C@@H](O)CC[C@]5(C)[C@H]4CC[C@]3(C)C2=O)cc1`, the GI50 in the test with 786-0 was 16.3 µM (inactive); with BT-549 it was 53.5 µM (inactive); in the test on COLO 205 it was 23.7 µM (inactive); with HCT-15, 34.5 µM; with HL-60, > 100 µM (inactive); in the test with K562 it was 32.8 µM (inactive). The GI50 with MCF7 was 30.5 µM (inactive); in the test on NCI-H460, 15.8 µM (inactive); in the test on NCI/ADR-RES it was 19.1 µM (inactive); with OVCAR-4, 18.1 µM (inactive); in the test on PC-3, 13.4 µM (inactive); in the test on SF-295, 25.6 µM (inactive). Further, the GI50 is 9.2 µM (inactive) in the test on SF-539, 19.7 µM (inactive) with SK-MEL-2, 20.3 µM (inactive) with TK-10 and 4.55 µM (inactive) in the test with UO-31.

These data come from ChEMBL document CHEMBL1201862, “PubChem BioAssay data set” (2004).
